Experimental data reported in paper PMC7377239, “Cardiovascular Effects of Polychlorinated Biphenyls and Their Major Metabolites” (Environmental Health Perspectives, 2020).
Like-named read-outs stand apart in the source and are kept apart here.

Legend:
[1] = tested on: iCell endothelial cells (human iPSC-derived ECs); experiment: High-content imaging cytotoxicity in iCell endothelial cells, 24 h; format: cell-based; details: Homo sapiens, Endothelial cell, iPSC-EC, 24 hr; for viability at 0.1 µM / activity at 0.1 µM: 0.10 µM; for minimal effective concentration: top concentration 100.00 µM
Description: The culture conditions of iCell®-endothelial cells were as reported elsewhere ([Iwata et al. 2017]). Briefly, T75 flasks were coated with a fibronectin solution ( 3 μg/cm^2 ) followed by incubation for 1–2 h. Cells were thawed for 3 min in a 37°C water bath. Thawed cells were added to maintenance medium made of VascuLife VEGF Medium Complete Kit, excluding the supplied FBS, and iCell® Endothelial Cells Medium Supplement. The final formulation of the maintenance medium is detailed in ([Iwata et al. 2017]). The aliquoted fibronectin solution was aspirated from the T75 flasks, and cells were seeded at 1.0×10^4 cells/cm^2 . Cells were maintained at 37°C and 5% CO2 with media changes occurring every 2 d and passaged every 3–4 d using TrypLE™ Express. All experiments were conducted on cells between passages 1 and 5.
Cytotoxicity was assessed in parallel experiments. For iCell®-endothelial cells, 384-well plates were coated with a 30μg/mL fibronectin solution ( 10μL/well ) and incubated for 2 h at RT. iCell®-endothelial cells were dissociated with TrypLE™ Express and prepared into a solution to achieve 750 cells per well and 50μL of total volume. The fibronectin solution was removed from the 384-well plate, and cells were plated. For HUVECs, similar dissociation and the same cell density were used for plating with the exclusion of the fibronectin solution. Cells were incubated at 37°C and 5% CO2 until a monolayer was formed, typically 3–5 d. 2×PCB plates were created with the requisite maintenance medium. Before treatment, the medium in the wells was exchanged to 25μL/well of fresh maintenance medium. 2×PCB chemical solutions ( […] ) were added. After 24 h incubation at 37°C and 5% CO2 , cells were stained with Hoechst 33342, MitoTracker™ Orange, and calcein AM for 20 min before replacing the staining media with FluoroBright DMEM. Cell culture plates were imaged using the ImageXpress® Micro Confocal high-content imaging system (Molecular Devices). Images were acquired at 10× magnification with DAPI, TRITC, or FITC filter (Hoechst 33342, MitoTracker™, or calcein AM, respectively). The multiwavelength cell scoring applications module in MetaXpress™ (Molecular Devices) was used to analyze the images.
(§1) Phenotypic responses were quantitatively assessed using concentration–response modeling as detailed elsewhere ([Sirenko et al. 2017]). Briefly, phenotypic readouts were normalized to vehicle controls and fit to a four-parameter logistic model in R studio software (version 3.1.1; R Development Core Team). Following EPA guidance on dose–response modeling, a cutoff of one standard deviation across means of vehicle control (i.e., 0.5% vol/vol DMSO in cell culture media) wells was applied to determine the point-of-departure (POD) values ([U.S. EPA 2012]). In the absence of a concentration–response, the highest tested concentration (i.e., 100μM ) was assigned as “no observable adverse effect level.” The concentration–response assessment R script, as well as templates for vehicle and concentration–response data, are available as a supplement to Sirenko et al. ([2017]). The ability of physicochemical properties to predict differences in PODs were evaluated by multiregression and mixed-effects modeling using R.

[2] = tested on: HUVECs; experiment: Tube formation (tubulogenesis) assay in HUVECs, 18 h; format: cell-based, human; details: Homo sapiens, HUVEC, 18 h, HUVECs; for activity at 0.1 µM: 0.10 µM; for minimal effective concentration: top concentration 100.00 µM
Description: Similar to the cultivation of iCell®-endothelial cells, HUVEC maintenance and experimentation are detailed elsewhere ([Iwata et al. 2017]). Briefly, HUVECs were thawed, seeded, and grown in T75 tissue culture flasks in Medium 199 with EGM™-2 BulletKits™. HUVECs were incubated at regular cell culture conditions, 37°C and 5% CO2 , and passaged every 2–3 d using TrypLE™ Express. To ensure adequate endothelial function, experiments were performed with cells between passages 1 and 5.
Tube formation assays were performed on Geltrex™ LDEV-free reduced growth factor basement membrane using both iCell®-endothelial cells and HUVECs in 384-well format exactly as detailed in Iwata et al. ([2017]). Negative controls included media-only and vehicle control (i.e., 0.5% vol/vol DMSO in cell culture media) wells. Positive assay controls were consistent with previously published reports ([Iwata et al. 2017]) and included TAB ( 50μM ) as a cytotoxic control, and nocodazole ( 0.01–1μM ), suramin ( 0.5–50μM ), histamine ( 0.1–100μM ), and chloroquine ( 1–500μM ) as chemicals associated with specific effects on ECs. Each test chemical was screened in triplicate for each concentration. Briefly, for iCell®-endothelial cells, starvation media consisted of VascuLife® basal medium with 4 mM L-glutamine LifeFactor and 0.1% iCell®-endothelial cells medium supplement. To counter dilution effects, a 2× concentration of the HUVEC maintenance medium supplemented with additional VEGF was created (EGM™-2 BulletKits™ at 2× concentration; also the VEGF component was replaced with 12.5 ng/mL VEGF). Geltrex™ LDEV-free reduced growth factor basement membrane was thawed overnight and dispensed into 384-well plates ( 10μL/well ) with tapping and rotating to evenly coat. The plates were incubated for 1 h in a cell culture incubator at 37°C and 5% CO2 . A 2× PCB plate (containing all of the PCBs and metabolites in dose–response) was prepared in basal media and added, 25μL per well, to the Geltrex™ coated plates. On separate plates, cells were seeded 7,500 (iPSC- ECs) or 3,500 (HUVEC) cells/well. Cells were exposed to chemicals overnight at 37°C and 5% CO2 and stained with 3× concentration of calcein AM ( 25μL /well, 6μmol/L ) for 15 min before imaging. Images were captured at 4× magnification with the FITC filter (calcein AM). Images were analyzed with the angiogenesis module software within MetaXpress™ (Molecular Devices).
as §1

[3] = 0.00 µM control = 100.00, read-out: endo.cyto.24hr
[4] = 0.00 µM control = 100.00, read-out: endo.mito.24hr
[5] = 0.00 µM control = 100.00, read-out: endo.mitoint.24hr
[6] = 0.00 µM control = 100.00, read-out: endo.nma.24hr
[7] = 0.00 µM control = 100.00, read-out: endo.tc.24hrs
[8] = 0.00 µM = 100.00, read-out: huvec.mtl.18hr
[9] = 0.00 µM = 100.00, read-out: huvec.tlps.18hr
[10] = 0.00 µM = 100.00, read-out: huvec.tta.18hr
[11] = 0.00 µM = 100.00, read-out: huvec.ttl.18hr

## Clc1ccc(-c2ccccc2)cc1 [PCB3]
[1]; [3]
  viability at 0.01 µM: 101%
  viability at 0.1 µM: 100%
  viability at 1 µM: 107%
  viability at 10 µM: 106%
  viability at 100 µM: 105%
[1]; [4]
  activity at 0.01 µM: 101%
  activity at 0.1 µM: 101%
  activity at 1 µM: 107%
  activity at 10 µM: 105%
  activity at 100 µM: 106%
[1]; [5]
  activity at 0.01 µM: 126%
  activity at 0.1 µM: 109%
  activity at 1 µM: 104%
  activity at 10 µM: 100%
  activity at 100 µM: 102%
[1]; [6]
  activity at 0.01 µM: 97.7%
  activity at 0.1 µM: 98%
  activity at 1 µM: 95.8%
  activity at 10 µM: 94.8%
  activity at 100 µM: 95.7%
[1]; [7]
  viability at 0.01 µM: 101%
  viability at 0.1 µM: 100%
  viability at 1 µM: 107%
  viability at 10 µM: 106%
  viability at 100 µM: 105%
[1]; read-out: endo.cyto.24hr POD
  minimal effective concentration: 100 µM
[1]; read-out: endo.mito.24hr POD
  minimal effective concentration: 100 µM
[1]; read-out: endo.mitoint.24hr POD
  minimal effective concentration: 100 µM
[1]; read-out: endo.nma.24hr POD
  minimal effective concentration: 100 µM
[1]; read-out: endo.tc.24hrs POD
  minimal effective concentration: 100 µM
[2]; [8]
  activity at 0.01 µM: 96.2%
  activity at 0.1 µM: 97.7%
  activity at 1 µM: 87%
  activity at 10 µM: 96.7%
  activity at 100 µM: 70.8%
[2]; [9]
  activity at 0.01 µM: 59.5%
  activity at 0.1 µM: 91.8%
  activity at 1 µM: 74.7%
  activity at 10 µM: 74.2%
  activity at 100 µM: 39.1%
[2]; [10]
  activity at 0.01 µM: 68%
  activity at 0.1 µM: 96.2%
  activity at 1 µM: 76.6%
  activity at 10 µM: 62%
  activity at 100 µM: 26%
[2]; [11]
  activity at 0.01 µM: 71.6%
  activity at 0.1 µM: 104%
  activity at 1 µM: 81.5%
  activity at 10 µM: 66.4%
  activity at 100 µM: 28%
[2]; read-out: huvec.mtl.18hr POD
  minimal effective concentration: 25.3 µM
[2]; read-out: huvec.tlps.18hr POD
  minimal effective concentration: 100 µM
[2]; read-out: huvec.tta.18hr POD
  minimal effective concentration: 0.67 µM
[2]; read-out: huvec.ttl.18hr POD
  minimal effective concentration: 0.7 µM
